Here are results for one substance from patent US12403127B2, “Specifically meso-substituted porphyrins and chlorins for photodynamic therapy” (biolitec Unternehmensbeteiligungs II AG, priority 2014, dated 2025).

The subject of assay [1] is HT29 (human colon adenocarcinoma cell line). As to the kind of experiment: Cell test of photosensitizing activity (XTT cell viability after 652 nm laser irradiation) in HT29. Format: cell-based. Conditions: 2 or 10 μM photosensitizer, 24 h incubation, 50 J/cm^2, XTT viability 24 h after irradiation. The protocol: (§1) The photosensitizing activity was determined in the following cell lines: • HT29 (human colon adenocarcinoma cell line) • L929 (mouse fibroblast cell line) • A431 (human epidermoid carcinoma cell line) • A253 (submaxillary salivary gland, epidermoid cell line) • CAL-27 (human tongue squamous cell carcinoma cell line).
(§2) The cell lines were grown in DMEM (PAA Laboratories GmbH) supplemented with 10% heat-inactivated fetal calf serum (FCS, PAA Laboratories GmbH), 1% penicillin (10000 IU) and streptomycin (10000 μg/ml, PAA Laboratories GmbH). Cells were kept as a monolayer culture in a humidified incubator (5% CO2 in air at 37° C.).
(§3) A photosensitizer stock solution (2 mM) was performed in DMSO and was kept in the dark at 4° C. Further dilution was performed in DMEM medium without phenol red supplemented with 10% FCS to reach a final photosensitizer concentration of 2 or 10 μM, respectively.
(§4) 2·10^4 cells/ml were seeded in micro plates ([…]). Cells were incubated with fresh medium (DMEM without phenol red) containing 10% FCS with 2 or 10 μM of the photosensitizer for 24 h before light exposure. […]
(§5) The cell viability was assessed by the XTT assay. […]
(§6) The absorbance of the samples was measured with a spectrophotometer (Infinite 200, Tecan Group Ltd.) at a wavelength of 490 nm. In order to measure reference absorbance (to measure non-specific readings) a wavelength of 630-690 nm was used.
A general note: Tetrazolium assays rely on reduction of a dye to a coloured formazan, in cell work by metabolically active cells.

For assay [2], the system named is CAL-27 (human tongue squamous cell carcinoma cell line). As to the kind of experiment: Cell test of photosensitizing activity (XTT cell viability after 652 nm laser irradiation) in CAL-27. Format: cell-based. Conditions: 2 or 10 μM photosensitizer, 24 h incubation, 50 J/cm^2, XTT viability 24 h after irradiation. How it is done:
as §1, §2, §3, §4, §5, §6

Take “5,10,15-tris-(3-hydroxy-phenyl)-20-[4-(butyloxy)-tetra-fluorphenyl]-porphyrin [Example 7.13]”: in assay [1], the “photodynamic activity (photo toxicity, "Laser") in the HT29 cell line” value is on record as “lack activity”. Moreover, the “PDT activity against CAL-27 cells” value in assay [2] is on record as “show PDT activity”.
